{
  "source": "patent US6376666B1",
  "about": "(Nauchno-Issledovatelsky Institut Farmakologii Rossiiskoi …, priority 1994, dated 2002)",
  "tested_on": "cats",
  "assay": "hemodynamics and activity of intact heart in cats under anesthesia",
  "type": "in vivo",
  "conditions": "for Cardiac volume, change from basal level / Heart rate, change from basal level / Mean blood flow accelaration (aortic), change from basal level / Mean blood pressure, change from basal level / Stroke volume, change from basal level: cats",
  "method": "The effects of compounds on the hemodynamics and activity of intact heart were studied in cats under anesthesia. The experiments were carried out under conditions of open chest. The phase curve of aortic blood flow was the main index of cardiac activity. The compounds were administered i.v. in physiological solution. The t-Student' test was used to estimate the statistical significance.",
  "key": {"[1]": {"conditions": "1.0 mg/kg i.v., after injection"}, "[2]": {"conditions": "2.0 mg/kg i.v., after injection"}},
  "data": [
    {"smiles": "CN(C)CCSc1nc2ccccc2n1CCc1ccccc1", "note": "[Compound XX, 1-(β-Phenylethyl)-2-[2-(dimethylamino)ethylthio]-benzimidazole]", "values": [
      {"measurement": "effect on contractile function of heart, in words", "setting": "cats i.v., same doses as bradycardia", "value": "slightly enhanced the contractility of myocardium"},
      {"measurement": "duration of bradycardia after administration", "setting": "cats i.v., VIII 1,0, IX 0,5 and 1,0, XX 1,0 and 2,0 mg/kg", "value": 30, "unit": "min"},
      {"measurement": "effect on heart rate, in words", "setting": "cats i.v., VIII 1,0, IX 0,5 and 1,0, XX 1,0 and 2,0 mg/kg, XXIII 1.0, verapamil 0.5 mg/kg", "value": "expressed bradycardia"},
      {"measurement": "Cardiac volume, change from basal level", "setting": "1.0 mg/kg i.v., after 2 min", "value": "+2.5 ± 0.9%"},
      {"measurement": "Heart rate, change from basal level", "setting": "1.0 mg/kg i.v., after 2 min", "value": "−4.9 ± 1.5", "unit": "%"},
      {"measurement": "Mean blood flow accelaration (aortic), change from basal level", "setting": "1.0 mg/kg i.v., after 2 min", "value": "−1.4 +1.8%"},
      {"measurement": "Mean blood pressure, change from basal level", "setting": "1.0 mg/kg i.v., after 2 min", "value": "± 5.1 ± 1.7 %"},
      {"measurement": "Stroke volume, change from basal level", "setting": "1.0 mg/kg i.v., after 2 min", "value": "+7.9 ± 1.6 %"},
      {"measurement": "Cardiac volume, change from basal level", "setting": "1.0 mg/kg i.v., after 5 min", "value": "−3.9 ± 1.5", "unit": "%"},
      {"measurement": "Heart rate, change from basal level", "setting": "1.0 mg/kg i.v., after 5 min", "value": "−5.2 ± 2.1", "unit": "%"},
      {"measurement": "Mean blood flow accelaration (aortic), change from basal level", "setting": "1.0 mg/kg i.v., after 5 min", "value": "−3.6 ± 2.4", "unit": "%"},
      {"measurement": "Mean blood pressure, change from basal level", "setting": "1.0 mg/kg i.v., after 5 min", "value": "+2.0 ± 1.0%"},
      {"measurement": "Stroke volume, change from basal level", "setting": "1.0 mg/kg i.v., after 5 min", "value": "+1.7 ± 3.4%"},
      {"measurement": "Cardiac volume, change from basal level", "setting": "1.0 mg/kg i.v., after 10 min", "value": "−3.9 ± 2.8", "unit": "%"},
      {"measurement": "Heart rate, change from basal level", "setting": "1.0 mg/kg i.v., after 10 min", "value": "−4.3 ± 1.9", "unit": "%"},
      {"measurement": "Mean blood flow accelaration (aortic), change from basal level", "setting": "1.0 mg/kg i.v., after 10 min", "value": "−0.6 ± 2.1", "unit": "%"},
      {"measurement": "Mean blood pressure, change from basal level", "setting": "1.0 mg/kg i.v., after 10 min", "value": "+1.7 ± 1.2%"},
      {"measurement": "Stroke volume, change from basal level", "setting": "1.0 mg/kg i.v., after 10 min", "value": "+0.6 ± 3.5%"},
      {"measurement": "Cardiac volume, change from basal level", "setting": "1.0 mg/kg i.v., after 20 min", "value": "−4.1 ± 2.8", "unit": "%"},
      {"measurement": "Heart rate, change from basal level", "setting": "1.0 mg/kg i.v., after 20 min", "value": "−5.0 ± 4.2", "unit": "%"},
      {"measurement": "Mean blood flow accelaration (aortic), change from basal level", "setting": "1.0 mg/kg i.v., after 20 min", "value": "−2.8 ± 2.6", "unit": "%"},
      {"measurement": "Mean blood pressure, change from basal level", "setting": "1.0 mg/kg i.v., after 20 min", "value": "+3.3 ± 2.4%"},
      {"measurement": "Stroke volume, change from basal level", "setting": "1.0 mg/kg i.v., after 20 min", "value": "+1.4 ± 3.8%"},
      {"measurement": "Cardiac volume, change from basal level", "setting": "1.0 mg/kg i.v., after 30 min", "value": "−7.0 ± 3.4", "unit": "%"},
      {"measurement": "Heart rate, change from basal level", "setting": "1.0 mg/kg i.v., after 30 min", "value": "−5.0 ± 4.2", "unit": "%"},
      {"measurement": "Mean blood flow accelaration (aortic), change from basal level", "setting": "1.0 mg/kg i.v., after 30 min", "value": "−3.2 ± 1.8", "unit": "%"},
      {"measurement": "Mean blood pressure, change from basal level", "setting": "1.0 mg/kg i.v., after 30 min", "value": "+0.3 ± 3.0%"},
      {"measurement": "Stroke volume, change from basal level", "setting": "1.0 mg/kg i.v., after 30 min", "value": "−0.5 ± 4.4", "unit": "%"},
      {"measurement": "Heart rate, change from basal level", "setting": "[1]", "value": "−7.9 ± 1.7", "unit": "%"},
      {"measurement": "Mean blood flow accelaration (aortic), change from basal level", "setting": "[1]", "value": "+10.7 ± 3.3 %"},
      {"measurement": "Mean blood pressure, change from basal level", "setting": "[1]", "value": "−0.9 ± 2.7", "unit": "%"},
      {"measurement": "Stroke volume, change from basal level", "setting": "[1]", "value": "+25.2 ± 2.6 %"},
      {"measurement": "Cardiac volume, change from basal level", "setting": "2.0 mg/kg i.v., after 2 min", "value": "+1.2 ± 2.8%"},
      {"measurement": "Heart rate, change from basal level", "setting": "2.0 mg/kg i.v., after 2 min", "value": "−5.2 ± 1.8", "unit": "%"},
      {"measurement": "Mean blood flow accelaration (aortic), change from basal level", "setting": "2.0 mg/kg i.v., after 2 min", "value": "−3.0 ± 3.9", "unit": "%"},
      {"measurement": "Mean blood pressure, change from basal level", "setting": "2.0 mg/kg i.v., after 2 min", "value": "± 4.6 ± 3.5%"},
      {"measurement": "Stroke volume, change from basal level", "setting": "2.0 mg/kg i.v., after 2 min", "value": "+6.9 ± 3.1%"},
      {"measurement": "Cardiac volume, change from basal level", "setting": "2.0 mg/kg i.v., after 5 min", "value": "−0.5 ± 3.1", "unit": "%"},
      {"measurement": "Heart rate, change from basal level", "setting": "2.0 mg/kg i.v., after 5 min", "value": "−4.5 ± 1.4", "unit": "%"},
      {"measurement": "Mean blood flow accelaration (aortic), change from basal level", "setting": "2.0 mg/kg i.v., after 5 min", "value": "+1.6 ± 5.1%"},
      {"measurement": "Mean blood pressure, change from basal level", "setting": "2.0 mg/kg i.v., after 5 min", "value": "+3.3 ± 2.5%"},
      {"measurement": "Stroke volume, change from basal level", "setting": "2.0 mg/kg i.v., after 5 min", "value": "+4.2 ± 3.8%"},
      {"measurement": "Cardiac volume, change from basal level", "setting": "2.0 mg/kg i.v., after 10 min", "value": "−1.4 ± 3.0", "unit": "%"},
      {"measurement": "Heart rate, change from basal level", "setting": "2.0 mg/kg i.v., after 10 min", "value": "−3.1 ± 1.6", "unit": "%"},
      {"measurement": "Mean blood flow accelaration (aortic), change from basal level", "setting": "2.0 mg/kg i.v., after 10 min", "value": "−1.0 ± 3.1", "unit": "%"},
      {"measurement": "Mean blood pressure, change from basal level", "setting": "2.0 mg/kg i.v., after 10 min", "value": "−1.0 ± 1.8", "unit": "%"},
      {"measurement": "Stroke volume, change from basal level", "setting": "2.0 mg/kg i.v., after 10 min", "value": "+1.8 ± 2.1%"},
      {"measurement": "Cardiac volume, change from basal level", "setting": "2.0 mg/kg i.v., after 20 min", "value": "−4.7 ± 5.2", "unit": "%"},
      {"measurement": "Heart rate, change from basal level", "setting": "2.0 mg/kg i.v., after 20 min", "value": "−3.6 ± 1.7", "unit": "%"},
      {"measurement": "Mean blood flow accelaration (aortic), change from basal level", "setting": "2.0 mg/kg i.v., after 20 min", "value": "−3.8 ± 4.0", "unit": "%"},
      {"measurement": "Mean blood pressure, change from basal level", "setting": "2.0 mg/kg i.v., after 20 min", "value": "−5.3 ± 0.8", "unit": "%"},
      {"measurement": "Stroke volume, change from basal level", "setting": "2.0 mg/kg i.v., after 20 min", "value": "−1.1 ± 5.4", "unit": "%"},
      {"measurement": "Cardiac volume, change from basal level", "setting": "2.0 mg/kg i.v., after 30 min", "value": "−5.5 ± 5.2", "unit": "%"},
      {"measurement": "Heart rate, change from basal level", "setting": "2.0 mg/kg i.v., after 30 min", "value": "−4.0 ± 2.2", "unit": "%"},
      {"measurement": "Mean blood flow accelaration (aortic), change from basal level", "setting": "2.0 mg/kg i.v., after 30 min", "value": "−6.2 ± 4.9", "unit": "%"},
      {"measurement": "Mean blood pressure, change from basal level", "setting": "2.0 mg/kg i.v., after 30 min", "value": "−9.6 ± 3.5", "unit": "%"},
      {"measurement": "Stroke volume, change from basal level", "setting": "2.0 mg/kg i.v., after 30 min", "value": "+1.7 ± 3.9%"},
      {"measurement": "Cardiac volume, change from basal level", "setting": "[2]", "value": "+22.7 ± 6.6 %"},
      {"measurement": "Heart rate, change from basal level", "setting": "[2]", "value": "−10.7 ± 2.5", "unit": "%"},
      {"measurement": "Mean blood flow accelaration (aortic), change from basal level", "setting": "[2]", "value": "+22.5 ± 9.3%"},
      {"measurement": "Mean blood pressure, change from basal level", "setting": "[2]", "value": "−13.6 ± 5.1", "unit": "%"},
      {"measurement": "Stroke volume, change from basal level", "setting": "[2]", "value": "+38.5 ± 10.6 %"}
    ]}
  ]
}
